Source: article PMC10215199 (Antioxidants, 2023)
Structures can show the parent of a compound that is named as a salt.

Columns and labels:
recombinant human MAO-B = target: T1, recombinant human MAO-B (Homo sapiens, UniProt P27338); assay: biochemical; settings: for inhibition at 10 µM: single dose concentration of 10 µM; for inhibition at 10 µM / IC50: ±sem; for IC50: five doses
T1 construct: purchased Sigma Aldrich
T1 sequence (P27338 1-520): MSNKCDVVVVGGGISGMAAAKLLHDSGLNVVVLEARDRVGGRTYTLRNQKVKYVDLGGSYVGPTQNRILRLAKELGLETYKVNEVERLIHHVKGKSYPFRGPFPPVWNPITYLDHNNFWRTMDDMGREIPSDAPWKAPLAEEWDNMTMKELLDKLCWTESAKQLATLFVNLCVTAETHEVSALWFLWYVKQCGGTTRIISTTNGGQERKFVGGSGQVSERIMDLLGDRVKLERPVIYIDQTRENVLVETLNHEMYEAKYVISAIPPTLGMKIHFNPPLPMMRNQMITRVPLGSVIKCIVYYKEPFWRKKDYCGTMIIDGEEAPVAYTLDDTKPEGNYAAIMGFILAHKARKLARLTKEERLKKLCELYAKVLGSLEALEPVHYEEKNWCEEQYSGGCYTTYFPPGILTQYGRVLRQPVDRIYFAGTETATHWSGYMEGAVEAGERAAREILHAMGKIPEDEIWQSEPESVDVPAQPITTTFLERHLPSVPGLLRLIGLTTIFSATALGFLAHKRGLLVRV

recombinant human MAO-A = target: T2, recombinant human MAO-A (Homo sapiens, UniProt P21397); assay: Monoamine oxidase-A inhibition assay (Amplex red fluorescence); format: biochemical; settings: ±sem; for inhibition at 1 µM: single dose concentration of 1 µM, NI = no measured inhibition, read-out: % Inhibition MAO-A; for MAO-A % Inhibition / inhibition at 100 µM: single dose concentration of 100 µM; for MAO-A % Inhibition: 100 µM; for inhibition at 100 µM: read-out: MAO-A % Inhibition; for IC50: read-out: MAO-A IC50
T2 sequence (P21397 1-527): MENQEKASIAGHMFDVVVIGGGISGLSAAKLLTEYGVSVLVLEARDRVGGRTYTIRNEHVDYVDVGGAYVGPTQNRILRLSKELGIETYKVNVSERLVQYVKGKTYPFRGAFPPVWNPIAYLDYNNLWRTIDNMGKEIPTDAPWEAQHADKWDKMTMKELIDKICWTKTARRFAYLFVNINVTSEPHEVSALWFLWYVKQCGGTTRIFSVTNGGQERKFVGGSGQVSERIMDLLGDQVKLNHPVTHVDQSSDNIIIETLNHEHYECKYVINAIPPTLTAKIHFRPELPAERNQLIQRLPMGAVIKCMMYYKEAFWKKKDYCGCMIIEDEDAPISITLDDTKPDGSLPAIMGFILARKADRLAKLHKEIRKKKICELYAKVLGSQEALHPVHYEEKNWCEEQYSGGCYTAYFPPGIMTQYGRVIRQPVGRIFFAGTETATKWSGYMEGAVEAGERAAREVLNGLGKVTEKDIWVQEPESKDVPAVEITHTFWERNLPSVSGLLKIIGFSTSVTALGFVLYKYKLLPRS
Protocol: Two isoforms of MAOs, namely MAO-A and MAO-B, are expressed in CNS, showing different substrate specificity. Consequently, different pharmacological effects can be elicited depending on the inhibited MAO isoform. Therefore, the prepared O^6-aminoalkyl-hispidol analogs were evaluated against both recombinant human MAO-A and MAO-B isoforms following the well-established spectrophotometric method.
2. Biological evaluations
2.1. In vitro assay of human monoamine oxidases inhibition
The MAO activity was quantified by measuring fluorescence intensity evoked by Amplex red reaction in which Amplex red reacts with hydrogen peroxide from the MAO reaction to produce highly fluorescent resorufin. The test compound in DMSO (final concentration: 1 nM – 10 μM or 10 nM – 100 μM ) and hMAO enzyme (Sigma Aldrich, St. Louis, MO, USA) in 50 mM sodium phosphate buffer (pH 7.4, final protein amount: ~1.25 μg of MAO-A/well and 2.5 μg of MAO-B/well) were loaded on 96-well black plate and incubated for 15 min at 37 °C. Then working solution of 200 μM Amplex Red (Cayman, Ann Arbor, MI, USA), 1 U/mL horseradish peroxidase (Sigma-Aldrich) and 1 mM substrate (p-tyramine for MAO-A, benzylamine for MAO-B, Sigma-Aldrich) in 50 mM sodium phosphate buffer (pH 7.4) was added and incubated for 20 min at 37 °C in the dark. The fluorescence was measured using a microplate reader (SpectraMax®i3, Molecular Device, San Jose, CA, USA) with an excitation at 545 nm and an emission at 590 nm. […]
(§1) of compounds were determined as the mean ± S.E.M. in triplicate from the dose-response inhibition curves using SigmaPlot® 13.0.

[1] = target: T3, acetylcholinesterase (AChE) (Mus musculus, UniProt P21836); assay: Acetylcholinesterase inhibition assay (Ellman, mouse whole brain homogenate); format: biochemical; settings: ±SD
T3 construct: The supernatant obtained was used as a source of enzyme for; from tissue; host or cells: whole brain of male ICR mice, supernatant of the homogenate
T3 sequence (P21836 32-614): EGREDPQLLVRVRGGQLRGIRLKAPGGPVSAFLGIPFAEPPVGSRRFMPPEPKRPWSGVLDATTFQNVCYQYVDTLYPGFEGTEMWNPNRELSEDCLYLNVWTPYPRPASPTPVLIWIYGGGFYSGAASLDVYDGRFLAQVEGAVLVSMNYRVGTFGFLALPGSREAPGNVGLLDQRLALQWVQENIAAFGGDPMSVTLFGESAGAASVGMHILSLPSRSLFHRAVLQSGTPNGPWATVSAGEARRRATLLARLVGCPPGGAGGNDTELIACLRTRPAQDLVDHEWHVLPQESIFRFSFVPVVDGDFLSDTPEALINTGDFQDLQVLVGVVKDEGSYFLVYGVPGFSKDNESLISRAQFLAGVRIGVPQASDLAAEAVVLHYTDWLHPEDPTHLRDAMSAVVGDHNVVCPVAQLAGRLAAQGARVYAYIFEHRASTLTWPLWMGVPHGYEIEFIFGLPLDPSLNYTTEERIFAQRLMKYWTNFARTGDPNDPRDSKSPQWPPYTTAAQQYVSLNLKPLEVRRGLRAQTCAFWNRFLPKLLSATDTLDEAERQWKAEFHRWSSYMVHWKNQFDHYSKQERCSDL
Protocol: as §1
2.2. In vitro acetylcholinesterase inhibition assay
(Eyela, Japan) containing 50 volumes of phosphate buffer (pH 8.0, 0.1 M), and then centrifuged at 14,000 rpm for 20 min at 4 °C. The supernatant obtained was used as a source of enzyme for the assay. Each drug was initially dissolved in dimethyl sulfoxide (DMSO) and diluted to various concentrations immediately before use. An aliquot of diluted drug solution was then mixed wit h 640 μL of phosphate buffer (0.1 M, pH 8.0), 25 μL of buffered Ellman’s reagent (10 mM 5,5′- dithio-bis(2-nitrobenzoic acid) and 15 mM sodium bicarbonate), and the enzyme source (100 μL) and pre-incubated at room temperature for 10 min. Then 5 μL of acetylthiocholine iodide solution (75 mM) was added to this mixture and mixed. Absorbance was measured at 410 nm after 10 min for the reaction adding 5 μL of acetylthiocholine iodide solution (75 mM) and to the reaction mixtures (OPTIZEN 2120UV, Mecasys Co. Ltd, Korea).

Structure (SMILES)	inhibition at 10 µM (recombinant human MAO-B)	inhibition at 1 µM (recombinant human MAO-A)	other results
COc1ccccc1/C=C1\Oc2cc(OCCN3CCCC3)ccc2C1=O [Compound 3ab]	43 ± 0.55%	< 0%	
COc1ccccc1/C=C1\Oc2cc(OCCCN3CCCC3)ccc2C1=O [Compound 3ac]	32.27 ± 0.23%	1.31 ± 0.82%	
CCN(CC)CCOc1ccc2c(c1)O/C(=C\c1cccc(OC)c1)C2=O [Compound 3ad]	46.09 ± 0.11%	< 0%	
CCN(CC)CCCOc1ccc2c(c1)O/C(=C\c1cccc(OC)c1)C2=O [Compound 3ae]	18.8 ± 0.45%	< 0%	
COc1cccc(/C=C2\Oc3cc(OCCN4CCCC4)ccc3C2=O)c1 [Compound 3af]	39.1 ± 0.96%	< 0%	
COc1cccc(/C=C2\Oc3cc(OCCCN4CCCC4)ccc3C2=O)c1 [Compound 3ag]	16.99 ± 0.11%	12.2 ± 1.05%	
COc1cccc(/C=C2\Oc3cc(OCCCN4CCCCC4)ccc3C2=O)c1 [Compound 3ah]	18.1 ± 1.83%	< 0%	
COc1cccc(/C=C2\Oc3cc(OCCN4CCOCC4)ccc3C2=O)c1 [Compound 3ai]	27.9 ± 0.37%	4.1 ± 0.48%	
COc1ccc(/C=C2\Oc3cc(OCCN4CCCC4)ccc3C2=O)cc1 [Compound 3aj]	39.26 ± 0.03%	3.26 ± 0.75%	
COc1ccc(/C=C2\Oc3cc(OCCCN4CCCC4)ccc3C2=O)cc1 [Compound 3ak]	45.64 ± 0.08%	9.83 ± 0.64%	
COc1ccc(/C=C2\Oc3cc(OCCCCN4CCCC4)ccc3C2=O)cc1 [Compound 3al]	49.8 ± 0.02%	< 0%	MAO-B Selectivity Index (recombinant human MAO-B; calculated from MAO-A and MAO-B IC50 values): >12; IC50 (recombinant human MAO-B): 8.65 ± 0.196 µM; MAO-A % Inhibition (recombinant human MAO-A): 14.89 ± 3.46%; inhibition at 100 µM (recombinant human MAO-A): ~15%; IC50 (recombinant human MAO-A): > 100 µM; IC50 [1]: 1.42 ± 0.09 µM
COc1ccc(/C=C2\Oc3cc(OCCN4CCCCC4)ccc3C2=O)cc1 [Compound 3am]	20.6 ± 0.79%	0.92 ± 0.83%	
COc1ccc(/C=C2\Oc3cc(OCCN4CCCC4)ccc3C2=O)cc1OC [Compound 3an]	48.1 ± 1.46%	< 0%	
COc1ccc(/C=C2\Oc3cc(OCCCN4CCCC4)ccc3C2=O)cc1OC [Compound 3ao]	39.2 ± 0.58%	< 0%	
COc1ccc(/C=C2\Oc3cc(OCCN4CCCCC4)ccc3C2=O)cc1OC [Compound 3ap]	50.81 ± 0.44%	< 0%	IC50 (recombinant human MAO-B): 10.18 ± 0.099 µM; MAO-A % Inhibition (recombinant human MAO-A): 22.52 ± 0.04%; inhibition at 100 µM (recombinant human MAO-A): ~23%; IC50 (recombinant human MAO-A): > 100 µM
COc1ccc(/C=C2\Oc3cc(OCCCN4CCCCC4)ccc3C2=O)cc1OC [Compound 3aq]	4.51 ± 1.3%	< 0%	
COc1ccc(/C=C2\Oc3cc(OCCCCN4CCCCC4)ccc3C2=O)cc1OC [Compound 3ar]	3.89 ± 1.63%	< 0%	
COc1ccc(/C=C2\Oc3cc(OCCCCCN4CCCCC4)ccc3C2=O)cc1OC [Compound 3as, (Z)-2-(3,4-Dimethoxybenzylidene)-6-(5-(piperidin-1-yl)pentoxy)benzofuran-3(2H)-one hydrochloride]	4.76 ± 1.91%	< 0%	
COc1cc(/C=C2\Oc3cc(OCCN4CCCC4)ccc3C2=O)cc(OC)c1 [Compound 3at]	36.8 ± 0.44%	< 0%	
COc1cc(/C=C2\Oc3cc(OCCCN4CCCC4)ccc3C2=O)cc(OC)c1 [Compound 3au]	21.2 ± 0.3%	< 0%	
COc1cccc(/C=C2\Oc3cc(OCCN4CCCC4)ccc3C2=O)c1OC [Compound 3av]	2.61 ± 1.78%	12.6 ± 0.32%	
COc1ccc(/C=C2\Oc3cc(OCCN4CCCC4)ccc3C2=O)c(OC)c1 [Compound 3aw]	41.6 ± 1.03%	12.7 ± 0.54%	
COc1ccc(OC)c(/C=C2\Oc3cc(OCCN4CCCC4)ccc3C2=O)c1 [Compound 3ax]	65.05 ± 0.43%	< 0%	IC50 (recombinant human MAO-B): 3.16 ± 0.036 µM; inhibition at 100 µM (recombinant human MAO-A): ~28%; IC50 (recombinant human MAO-A): > 100 µM
COc1cccc(/C=C2\Oc3cc(OCCCN4CCCC4)ccc3C2=O)c1OC [Compound 3ay]	4.37 ± 0.9%	< 0%	
COc1ccc(/C=C2\Oc3cc(OCCCN4CCCC4)ccc3C2=O)c(OC)c1 [Compound 3az]	35.87 ± 0.17%	< 0%	
COc1ccc(OC)c(/C=C2\Oc3cc(OCCCN4CCCC4)ccc3C2=O)c1 [Compound 3ba]	20.3 ± 0.49%	< 0%	
COc1ccc(/C=C2\Oc3cc(OCCN4CCCC4)ccc3C2=O)c(OC)c1OC [Compound 3bb]	23.9 ± 0.81%	< 0%	
COc1cc(/C=C2\Oc3cc(OCCN4CCCCC4)ccc3C2=O)cc(OC)c1OC [Compound 3bd]	27.9 ± 0.36%	< 0%	
